Source: patent US9062313B2, “Gem-difluorinated C-isopropylgalactoside derivates” (TFCHEM, priority 2011, dated 2015)

Key:
[1] = Stability of compounds in D2O solution at room temperature, followed by 19F NMR and 1H NMR; type: physicochemical
Experimental: Compounds T-16 and T-18 were dissolved in D2O and the resulting solutions were kept at room temperature. The stability of the compound was studied by ^19F NMR and ^1H NMR.

[2] = tested on: β-galactosidase expression (lacZ promoter); assay: Induction of β-galactosidase expression in E. coli (ONPG assay, OD420nm); type: cell-based, Escherichia coli; details: for effectiveness as inducer compared with IBCG / effectiveness as inducer compared with IPTG: during 3 h following the substrate addition; for induction of β-galactosidase expression/transcription: inducer 0.5 mM, until 3 hours after addition of ONPG substrate; for efficacy of induction overtime: up to 8 h following substrate addition
Experimental: (§1) The bacteria strain E. coli XL1—Blue MRF′ Electroporation-competent cells (Stratagene #200158) containing pGEM-T vector was grown in LB medium adding with appropriate antibiotic (ampicillin). The starter culture was grown by inoculating plasmid containing cells in LB medium added with ampicillin and incubated overnight at 37° C. with shaking at 250 rpm. When culture reached the desired OD, the induction was started.
For each assay the starter culture was appropriately diluted (OD600=0.2) in 1.5 mL of LB medium with 3 μg/mL of ampicillin
β-galactosidase expression is then induced by addition of either IPTG (Sigma I1284), IBCG or Compounds T-16 and T-18 to final concentrations of 0.5 or 1 mM. After this induction the cultures are incubated for 3 hours at 37° C. with shaking at 250 rpm.
The β-galactosidase activity was assayed by adding 0.5 mg/mL of the ortho 2-nitrophenyl-β-D-galactopyranoside (ONPG Sigma N1127) as chromogenic substrate. ONPG is hydrolyzed by β-galactosidase to yield galactose and ortho-Nitrophenol, which is yellow in color and absorbs light at 420 nm. The intensity of the color can be used to determine the β-galactosidase activity.
Absorbance was measured (OD420nm) every hour during 8 hours after the substrate addition. The absorbance was plotted as a function of time representing the induction kinetic of β-galactosidase activity for each inducer and each concentration tested. Assays were performed as triplicate.

E. coli culture = assay: Toxicity to bacteria (absorbance of bacteria culture, OD600nm); type: cell-based, Escherichia coli; details: 0.5 mM; for toxicity throughout the assay: 8 hours, versus negative control without inducer
Experimental: as §1
The absorbance of the bacteria culture was measured (OD600nm) every hour during 8 hours after the substrate addition. The absorbance was plotted as a function of time representing the toxicity for each inducer. The negative control (no toxicity) consists on an assay without inducer. Assays were performed as triplicate.

[3] = tested on: expression of Green Fluorescent Protein UV (GFPuv) in BLR(DE3) E. coli; assay: Recombinant GFPuv protein production, total and soluble fractions (SDS-PAGE densitometry); type: cell-based, Escherichia coli; details: inducer 0.1 mM, 0.05 mM and 0.01 mM
Experimental: Properties: MW: 27 763 Da. Theoretical pI: 6.13—Theoretical Absorption coefficient: 0.788—Number of Cys: 2 Construction of One Expression Strain: • Construct GFPUV-pET30b/3 was transformed into BLR(DE3) E. coli expression strain. • Cultures were performed from one single colony in a semi-defined Riesenberg medium in order to produce a Research Cell Bank (20 tubes of 1 mL stored at <−70° C.). Pre-cultures and Cultures Conditions: • Pre-cultures and cultures were performed in semi-defined Riesenberg medium, 50 mL and 250 mL flasks-scale, respectively. […] Analysis by SDS-PAGE Stained by Coomassie Blue • Sample: 10 μl deposit of suspension at equivalent OD600nm=8. • The proteins were separated by SDS-PAGE 4-12%, and then colored by Coomassie blue. • Quantitative measurement by densitometry and comparison with standard range of proteins.
Quantity of proteins (μg) was plotted as a function of time representing the kinetic of induction of GFPuv expression for each inducer and/or concentration tested.
The induction profile of GFPuv was evaluated for both IPTG and T-18 inducers at different concentrations. […]

Row | SMILES | degradation in solution (stability by 19F NMR and 1H NMR) ([1]; 10 weeks follow up) | effectiveness as inducer compared with IBCG ([2]; 0.5 mM) | effectiveness as inducer compared with IPTG ([2]; 0.5 mM) | induction of β-galactosidase expression/transcription [2] | toxicity throughout the assay (E. coli culture) | degradation in solution (stability by 19F NMR and 1H NMR) ([1]; 24 weeks follow up) | effectiveness relative to IPTG ([2]; 0.5 mM, 8 h following substrate addition) | efficacy of induction overtime ([2]; 0.5 mM) | toxicity compared with IPTG (E. coli culture; after 3 h up to 8 h following the substrate addition) | toxicity compared with IPTG (E. coli culture; until 3 h following the substrate addition) | final quantity of GFPuv produced (total fraction) compared with IPTG [3]
1 | CC(C)(O)C(F)(F)[C@@H]1O[C@H](CO)[C@H](O)[C@H](O)[C@H]1O [Compound T-16] | without any degradation | more effective inducers than IBCG | as effective inducers than IPTG | efficient inducers | medium toxicity | – | – | – | – | – | –
2 | CC(C)C(F)(F)[C@@H]1O[C@H](CO)[C@H](O)[C@H](O)[C@H]1O [Compound T-18] | – | more effective inducers than IBCG | as effective inducers than IPTG | efficient inducers | – | without any degradation | at least 3 times | remains effective overtime | less toxic than IPTG | as toxic as IPTG | higher than with IPTG
3 | CC(C)S[C@@H]1O[C@H](CO)[C@H](O)[C@H](O)[C@H]1O [IPTG, isopropyl-β-D -thiogalactopyranoside, reference compound] | – | – | – | – | medium toxicity | – | – | efficacy decrease | – | – | –
